Assay results: the supplement of paper PMC10307832

Assays:
Test in all cases: relative viability (nuclei count vs DMSO), 5 days (fraction); higher = more cells survive
NCI-H1975 = test system: NCI-H1975
Outline: (§1)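 Values are medians from duplicate plates. Each reflects relative viability, defined as the nuclei count of treated wells over that of vehicle wells. Lung cancer cell lines in 1536-well plates were pin-tool dosed one day after seeding with one drug alone or with a fixed anchor-drug dose plus five library-drug doses (not always all listed) in √10 steps, then fixed, stained and imaged at 4× after 5 days.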

NCI-H2126 = test system: NCI-H2126
Outline: as §1

NCI-H2342 = test system: NCI-H2342
Outline: as §1

NCI-H23 = test system: NCI-H23
Outline: as §1

NCI-H2405 = test system: NCI-H2405
Outline: as §1

NCI-H322M = test system: NCI-H322M
Outline: as §1

PC-14 = test system: PC-14
Outline: as §1

RERF-LC-KJ = test system: RERF-LC-KJ
Outline: as §1

SK-LU-1 = test system: SK-LU-1
Outline: as §1

SW 1573 = test system: SW 1573
Outline: as §1

SW 900 = test system: SW 900
Outline: as §1

## Cc1sc2c(c1C)C(c1ccc(Cl)cc1)=N[C@@H](CC(=O)OC(C)(C)C)c1nnc(C)n1-2 [JQ1] + COc1cccc2cc(-c3nc([C@H]4CC[C@H](C(=O)O)CC4)n4ncnc(N)c34)[nH]c12 [OSI-027] (partner 0.5 µM)
NCI-H1975; first compound 0.04 µM
  relative viability: 0.708
NCI-H1975; first compound 0.1265 µM
  relative viability: 0.527
NCI-H1975; first compound 0.4 µM
  relative viability: 0.62
NCI-H1975; first compound 1.265 µM
  relative viability: 0.437
NCI-H1975; first compound 4 µM
  relative viability: 0.393
NCI-H2126; first compound 0.04 µM
  relative viability: 0.712
NCI-H2126; first compound 0.1265 µM
  relative viability: 0.72
NCI-H2126; first compound 0.4 µM
  relative viability: 0.739
NCI-H2126; first compound 1.265 µM
  relative viability: 0.552
NCI-H2126; first compound 4 µM
  relative viability: 0.431
NCI-H2342; first compound 0.04 µM
  relative viability: 0.695
NCI-H2342; first compound 0.1265 µM
  relative viability: 0.605
NCI-H2342; first compound 0.4 µM
  relative viability: 0.702
NCI-H2342; first compound 1.265 µM
  relative viability: 0.681
NCI-H2342; first compound 4 µM
  relative viability: 0.52
NCI-H23; first compound 0.04 µM
  relative viability: 0.586
NCI-H23; first compound 0.1265 µM
  relative viability: 0.583
NCI-H23; first compound 0.4 µM
  relative viability: 0.394
NCI-H23; first compound 1.265 µM
  relative viability: 0.198
NCI-H23; first compound 4 µM
  relative viability: 0.204
NCI-H2405; first compound 0.04 µM
  relative viability: 0.651
NCI-H2405; first compound 0.1265 µM
  relative viability: 0.632
NCI-H2405; first compound 0.4 µM
  relative viability: 0.696
NCI-H2405; first compound 1.265 µM
  relative viability: 0.58
NCI-H2405; first compound 4 µM
  relative viability: 0.582
NCI-H322M; first compound 0.04 µM
  relative viability: 0.518
NCI-H322M; first compound 0.1265 µM
  relative viability: 0.589
NCI-H322M; first compound 0.4 µM
  relative viability: 0.477
NCI-H322M; first compound 1.265 µM
  relative viability: 0.321
NCI-H322M; first compound 4 µM
  relative viability: 0.339
PC-14; first compound 0.04 µM
  relative viability: 0.713
PC-14; first compound 0.1265 µM
  relative viability: 0.638
PC-14; first compound 0.4 µM
  relative viability: 0.514
PC-14; first compound 1.265 µM
  relative viability: 0.311
PC-14; first compound 4 µM
  relative viability: 0.343
RERF-LC-KJ; first compound 0.04 µM
  relative viability: 0.634
RERF-LC-KJ; first compound 0.1265 µM
  relative viability: 0.518
RERF-LC-KJ; first compound 0.4 µM
  relative viability: 0.531
RERF-LC-KJ; first compound 1.265 µM
  relative viability: 0.335
RERF-LC-KJ; first compound 4 µM
  relative viability: 0.338
SK-LU-1; first compound 0.04 µM
  relative viability: 0.381
SK-LU-1; first compound 0.1265 µM
  relative viability: 0.333
SK-LU-1; first compound 0.4 µM
  relative viability: 0.253
SK-LU-1; first compound 1.265 µM
  relative viability: 0.158
SK-LU-1; first compound 4 µM
  relative viability: 0.143
SW 1573; first compound 0.04 µM
  relative viability: 0.511
SW 1573; first compound 0.1265 µM
  relative viability: 0.475
SW 1573; first compound 0.4 µM
  relative viability: 0.371
SW 1573; first compound 1.265 µM
  relative viability: 0.229
SW 1573; first compound 4 µM
  relative viability: 0.233
SW 900; first compound 0.04 µM
  relative viability: 0.572
SW 900; first compound 0.1265 µM
  relative viability: 0.627
SW 900; first compound 0.4 µM
  relative viability: 0.352
SW 900; first compound 1.265 µM
  relative viability: 0.165
SW 900; first compound 4 µM
  relative viability: 0.166
